Data on 17 compounds can be found in PubChem BioAssay (NCI).

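Five concentrations, 48 hours, 96-well plates. GI50: concentration for 50% inhibition of growth. Definition used: TGI = concentration required for complete inhibition of growth.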

Some test systems named below: NCI-H522 lung; RPMI-8226 leukemia; OVCAR-4 ovarian; NCI-H23 lung; DMS 273 small cell lung; UO-31 renal; M19-MEL melanoma; CAKI-1 renal.
What all share (experiment): inhibition of tumour cell growth, NCI panel, 48 h

As for `Cc1ccc2c(c1)CNc1ccc(C)cc1CN2`, the TGI with NCI-H522 lung, in the assay on RPMI-8226 leukemia, in the assay on OVCAR-4 ovarian, in the assay with NCI-H23 lung, in the assay with DMS 273 small cell lung and in the assay on UO-31 renal was greater than 100 µM each time. The TGI with M19-MEL melanoma and with CAKI-1 renal was greater than 100 µM in each case.

In the case of `CC1(O)CCC2(C#N)CCC1C2O` (stereo not drawn), the TGI is greater than 100 µM with NCI-H522 lung; 54.6 µM with RPMI-8226 leukemia; greater than 100 µM with OVCAR-4 ovarian; greater than 100 µM in the assay on DMS 273 small cell lung; greater than 100 µM in the assay with UO-31 renal; greater than 100 µM with M19-MEL melanoma. This compound also had a TGI in the assay with CAKI-1 renal greater than 100 µM.

For `C=CCn1cc(C(=O)NC(=O)NCCCCCOC(=O)CCCCCCCCCCC(=O)OCCCCCNC(=O)NC(=O)c2cn(CC=C)c(=O)n(C)c2=O)c(=O)n(C)c1=O`, the TGI with NCI-H522 lung, with RPMI-8226 leukemia, with NCI-H23 lung, in the assay on DMS 273 small cell lung, in the assay on UO-31 renal and with M19-MEL melanoma was greater than 100 µM throughout. Also, the TGI in the assay with CAKI-1 renal is greater than 100 µM.

On to `Cc1c2c(cc3c(=O)ccn(CCN(C)C)c13)c(=O)ccn2CCN(C)C`, for which the TGI in the assay with NCI-H522 lung was found to be 21.1 µM; in the assay with OVCAR-4 ovarian, 18.6 µM; in the assay with NCI-H23 lung, 33.9 µM; in the assay with DMS 273 small cell lung, 16.3 µM; in the assay on UO-31 renal, 34.3 µM; with M19-MEL melanoma it was 30.2 µM. This compound also showed a TGI in the assay with CAKI-1 renal of 67.8 µM.

Regarding `N#C/C(=C\c1ccc(C(O)P(=O)(O)O)cc1)C(N)=O` (stereo not drawn), the TGI with NCI-H522 lung, with RPMI-8226 leukemia, in the assay on OVCAR-4 ovarian, with NCI-H23 lung, in the assay on DMS 273 small cell lung and in the assay with UO-31 renal was greater than 100 µM in each case. Also, the TGI in the assay with M19-MEL melanoma is greater than 100 µM.

On to `c1ccc(COC2(OCc3ccccc3)CC3OC2C2NN=NC32)cc1` (stereo not drawn), for which the TGI in the assay on RPMI-8226 leukemia was found to be 41.9 µM; with OVCAR-4 ovarian, 36.4 µM; in the assay on NCI-H23 lung, 34.3 µM; in the assay on DMS 273 small cell lung, 53.4 µM; with UO-31 renal it was 99.2 µM; with M19-MEL melanoma it was 32.2 µM. The compound further returned a TGI with CAKI-1 renal greater than 100 µM.

Consider `COc1cc2c(cn1)[nH]c1ccccc12`, for which the TGI with NCI-H522 lung, with RPMI-8226 leukemia, with OVCAR-4 ovarian, with NCI-H23 lung, in the assay with DMS 273 small cell lung and with UO-31 renal was greater than 100 µM throughout. In the assay with CAKI-1 renal, this compound came in with a TGI greater than 100 µM.

With `NNC(=O)/C(NC(=O)c1ccccc1)=C(\N)c1ccc(Cl)cc1`, the TGI in the assay with NCI-H522 lung, with RPMI-8226 leukemia, in the assay with OVCAR-4 ovarian, in the assay on NCI-H23 lung, in the assay with DMS 273 small cell lung and with UO-31 renal was greater than 100 µM each time. Moreover, the TGI in the assay with M19-MEL melanoma and in the assay with CAKI-1 renal was greater than 100 µM each time.

Turning to `CC1C(=O)O[C@H]2C1CC[C@@]1(C)[C@H](O)CC[C@@]13C[C@]2(O)OO3` (stereo partly drawn), the TGI in the assay on RPMI-8226 leukemia, in the assay on OVCAR-4 ovarian, with NCI-H23 lung, with DMS 273 small cell lung, in the assay with UO-31 renal and in the assay on M19-MEL melanoma was greater than 100 µM in each case. The same compound registered a TGI with CAKI-1 renal greater than 100 µM.

Turning to `COc1ccc(-c2c(N)[n+]([O-])c3ccccc3[n+]2[O-])cc1OC`, the TGI in the assay on NCI-H522 lung, in the assay on RPMI-8226 leukemia, in the assay on OVCAR-4 ovarian, in the assay with NCI-H23 lung, in the assay on DMS 273 small cell lung and in the assay on UO-31 renal was greater than 100 µM in each case. Moreover, the TGI in the assay with M19-MEL melanoma and with CAKI-1 renal was greater than 100 µM each time.

Turning to `O=C(c1ccc(Cl)cc1)c1ccc(OCCSCCCCCCCCCCSCCOc2ccc(C(=O)c3ccc(Cl)cc3)cc2)cc1`, the TGI in the assay on NCI-H522 lung, with RPMI-8226 leukemia, in the assay on NCI-H23 lung, in the assay on DMS 273 small cell lung, with UO-31 renal and in the assay on M19-MEL melanoma was greater than 100 µM throughout. In the assay with CAKI-1 renal, this compound showed a TGI greater than 100 µM.

`COc1cc2c(c(OC)c1OC)-c1ccc(OC)c(=O)cc1[C@@H](N(C)C=O)CC2`: the TGI is 0.0438 µM in the assay with NCI-H522 lung; greater than 100 µM with RPMI-8226 leukemia; greater than 100 µM in the assay on OVCAR-4 ovarian; greater than 100 µM in the assay on NCI-H23 lung; greater than 100 µM with DMS 273 small cell lung; greater than 100 µM in the assay on UO-31 renal. For the same compound, the TGI in the assay with M19-MEL melanoma and with CAKI-1 renal was greater than 100 µM throughout.

For the compound `CC/C=C/c1cc2cc[nH]c2c2c1C(C)C[C@@H]2C` (stereo partly drawn), the TGI with NCI-H522 lung is 40.4 µM; in the assay on RPMI-8226 leukemia, 53.4 µM; in the assay with NCI-H23 lung, 58.6 µM; with UO-31 renal it was 69.6 µM; in the assay on M19-MEL melanoma it was 77.3 µM; in the assay with CAKI-1 renal, greater than 100 µM.

With `S=c1nc(N2CCCCC2)ss1`, the TGI was 18 µM with RPMI-8226 leukemia; greater than 100 µM in the assay on OVCAR-4 ovarian; greater than 100 µM with NCI-H23 lung; 42.3 µM with DMS 273 small cell lung; 39.6 µM in the assay with UO-31 renal; 52.3 µM in the assay on M19-MEL melanoma. Further, the TGI with CAKI-1 renal is greater than 100 µM.

Take `CC(=O)/C=C/c1ccc(C)cc1`: the TGI with NCI-H522 lung, in the assay with RPMI-8226 leukemia, with OVCAR-4 ovarian, in the assay on NCI-H23 lung, with DMS 273 small cell lung and with UO-31 renal was greater than 100 µM in each case. The TGI in the assay on M19-MEL melanoma and in the assay with CAKI-1 renal was greater than 100 µM throughout.

For the compound `C1=Nc2ccccc2C=Nc2ccccc2C=Nc2ccccc2C=Nc2ccccc21.[Cl-].[Pt+2]`, the GI50 is 15.8 µM with NCI-H522 lung; 5.63 µM in the assay on RPMI-8226 leukemia; 19 µM in the assay on DMS 273 small cell lung; 20.8 µM in the assay on UO-31 renal; 22.2 µM with M19-MEL melanoma; 31.4 µM in the assay on CAKI-1 renal. For the same compound, the TGI was 34.8 µM with NCI-H522 lung; 35.6 µM with RPMI-8226 leukemia; 55.5 µM in the assay with DMS 273 small cell lung; 45.5 µM in the assay with UO-31 renal; greater than 100 µM with M19-MEL melanoma; 62.5 µM in the assay with CAKI-1 renal.

For `O=c1c2cccnc2ncn1CCN1CCCC1`, the TGI in the assay with NCI-H522 lung, in the assay on OVCAR-4 ovarian, with NCI-H23 lung, in the assay on DMS 273 small cell lung, in the assay on UO-31 renal and with M19-MEL melanoma was greater than 100 µM each time. The same compound had a TGI in the assay on CAKI-1 renal greater than 100 µM.
